Test results from ChEMBL document CHEMBL1201862, “PubChem BioAssay data set” (2004).
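1) Cells in 96-well plates. 2) Compound, 48 h, 5 concentrations. 3) Linear interpolation between surrounding doses. 4) Unreached endpoint = highest concentration. Here, GI50 denotes the concentration required for 50% inhibition of growth.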 Activity calls are given as the source filed them. Rule as the data show it: active = GI50 up to about 1.1 µM and inactive = higher.

Tests used:
Assay in all cases: NCI anticancer screen, dose series, 48 h
HCC 2998 = tested on: HCC 2998
SNB-19 = tested on: SNB-19
OVCAR-5 = tested on: OVCAR-5
ACHN = tested on: ACHN
SNB-78 = tested on: SNB-78
786-0 = tested on: 786-0
A498 = tested on: A498
A549 = tested on: A549
TK-10 = tested on: TK-10
UACC-257 = tested on: UACC-257
LXFL 529 = tested on: LXFL 529
OVCAR-8 = tested on: OVCAR-8
HCT-116 = tested on: HCT-116
NCI-H23 = tested on: NCI-H23
HOP-92 = tested on: HOP-92
SR = tested on: SR
CCRF-CEM = tested on: CCRF-CEM
MOLT-4 = tested on: MOLT-4
RPMI-8226 = tested on: RPMI-8226
DMS-114 = tested on: DMS-114
SF-268 = tested on: SF-268
SW-620 = tested on: SW-620
EKVX = tested on: EKVX
SN12C = tested on: SN12C
UO-31 = tested on: UO-31
RXF 393 = tested on: RXF 393
CAKI-1 = tested on: CAKI-1
COLO 205 = tested on: COLO 205
KM-20L2 = tested on: KM-20L2
HT-29 = tested on: HT-29
SF-295 = tested on: SF-295
HL-60 = tested on: HL-60
NCI-H522 = tested on: NCI-H522
K562 = tested on: K562
SNB-75 = tested on: SNB-75
SK-MEL-5 = tested on: SK-MEL-5
KM12 = tested on: KM12
SK-MEL-28 = tested on: SK-MEL-28
IGROV-1 = tested on: IGROV-1
U-251 = tested on: U-251
UACC-62 = tested on: UACC-62
DMS-273 = tested on: DMS-273
SK-OV-3 = tested on: SK-OV-3
DLD-1 = tested on: DLD-1
NCI-H460 = tested on: NCI-H460
M19-MEL = tested on: M19-MEL
SK-MEL-2 = tested on: SK-MEL-2
OVCAR-3 = tested on: OVCAR-3
Malme-3M = tested on: Malme-3M
SF-539 = tested on: SF-539

Measured: GI50

COC(=O)c1nc(-c2ccc(Cl)c(Cl)c2)nc2ccc(Cl)cc12
inactive: HCC 2998 > 100 µM | SNB-19 44.1 µM | OVCAR-5 27.4 µM | ACHN 44.6 µM | SNB-78 6.59 µM | 786-0 27.5 µM | A498 73.1 µM | A549 97.7 µM | TK-10 44 µM | UACC-257 > 100 µM | LXFL 529 > 100 µM | OVCAR-8 47.4 µM | HCT-116 18.4 µM | NCI-H23 68.5 µM | HOP-92 10.8 µM | SR > 100 µM | CCRF-CEM > 10 µM | MOLT-4 > 10 µM | RPMI-8226 > 100 µM | DMS-114 13.8 µM | SF-268 92.9 µM | SW-620 > 100 µM | EKVX 59.7 µM | SN12C > 100 µM | UO-31 33.6 µM | RXF 393 22.8 µM | CAKI-1 > 10 µM | COLO 205 > 100 µM | KM-20L2 21 µM | HT-29 > 100 µM | SF-295 37.7 µM | HL-60 > 100 µM | NCI-H522 > 10 µM | K562 > 10 µM | SNB-75 19.6 µM | SK-MEL-5 > 100 µM | KM12 > 100 µM | SK-MEL-28 > 100 µM | IGROV-1 94.4 µM | U-251 43.7 µM | UACC-62 87.3 µM | DMS-273 81.1 µM | SK-OV-3 20.6 µM | DLD-1 > 100 µM | NCI-H460 > 100 µM | M19-MEL > 100 µM | SK-MEL-2 > 100 µM | OVCAR-3 > 10 µM | Malme-3M > 100 µM | SF-539 17.5 µM
